Results taken from patent publication US11613558B2, “Peptides and pharmaceutical compositions for treating eye diseases” (Yuyu Pharma, Inc., priority 2018, dated 2023).
Numbered stars: 1 amine (or outer) side, 2 acyl side, 3 side chain; on linkers, the order of the positions; unused ones are H or OH. Square brackets hold non-standard residues; d marks the D form. Peptide text beside a SMILES is read from it. ξ: configuration not given here. cisHyp = O=C(O)[C@@H]1C[C@H](O)CN1; X1 = O=C([C@H](CCCCO)N[*:1])[*:2]; Hyp = O=C(O)[C@@H]1C[C@@H](O)CN1; Thr(3ξ) = CC(O)[C@H](N)C(=O)O; pGlu = O=C1CC[C@@H](C(=O)O)N1

Tests used:
[1] = Stability in aqueous solution under long-term storage conditions (related substances); assay type: physicochemical; conditions: 25° C., 75% RH
Experimental: In order to confirm the stability of each test substance in an aqueous solution, […] of each sample was dissolved in 1 ml of water to a concentration of 1 mg/ml, which was then charged to a glass vial, plugged with a rubber cap, sealed with an aluminum cap, and stored under long-term storage conditions (25° C., 75% RH). The stability of the test substance was evaluated by measuring the amount of related substances at the time of one week, two weeks, four weeks, eight weeks, and twelve weeks under the long-term storage conditions.

[2] = test system: cornea of rats with dry eye syndrome (ELGE); experiment: Corneal permeability of fluorescent dye (corneal damage) in ELGE rats with dry eye syndrome; assay type: in vivo, rat; conditions: 5 μl/eye twice daily, day 14
Source text: (§1) In order to evaluate the eye protection effect on dry eye syndrome by YDE-001 to YDE-028 prepared in Example 1, a total of 320 Sprague-Dawley-type male rats (OrientBio, Seungnam, Korea) were adapted for 7 days. Thereafter, dry eye syndrome was induced in 264 test rats through extraorbital lacrimal gland excision (hereinafter, ELGE). 8 test rats without the eye abnormality were subjected to a sham operation as a control group.
(§2) The rat was systemically anesthetized by inhaling a mixed gas of 2% to 3% of isoflurane (Hana Pharm. Co., Hwasung, Korea), 70% of N2O, and 28.6% of O2 using a rodent anesthesia machine (Surgivet, Waukesha, Wis., USA) and a ventilator (Model 687, Harvard Apparatus, Cambridge, UK). Thereafter, the extraorbital lacrimal gland located in the subdermal area above the masseter muscle and […] was excised through a transverse incision in a size of 10 mm on the anterior part of the left ear tragus. The skin was sutured by a general method. […] After 6 days from the ELGE operation, it was checked through the Schirmer test by measuring the amount of tear secretion whether dry eye syndrome had been induced. Meanwhile, each rat of the control group with the sham operation was checked for the presence and location of the extraorbital lacrimal gland through a skin incision, and the skin was then sutured without the excision thereof (FIG. 4).
(§3) In addition, in order to evaluate the eye protection effect on dry eye syndrome by YDE-029 to YDE-043 prepared in Example 1, a total of 200 Sprague-Dawley-type male rats (OrientBio, Seungnam, Korea) were adapted for 7 days. Dry eye syndrome was induced in 165 test rats through the ELGE. 8 test rats without the eye abnormality were subjected to the sham operation as a control group. The ELGE was carried out as described above.
(§4) For YDE-001 to YDE-028, YY-102 and the 28 YDE-series were each dissolved in physiological saline at a concentration of 3 mg/ml and administered at a dose of 5 μl/eye at 9:30 am and 3:30 pm daily for 14 days after 7 days from the ELGE operation for a total of 28 times. The DS solution was dissolved in physiological saline at a concentration of 30 mg/ml and administered at a dose of […] twice a day for 14 days after 7 days from the ELGE operation for a total of 28 times. For the sham control and the ELGE control groups, the same stimulation as the administration was applied. In order to prevent excessive eye dryness, the same volume of physiological saline was applied in the same manner in place of the test substances.
as §4, with “Further, for YDE-029 to YDE-043,” for “For YDE-001 to YDE-028,”, “YDE-029 to YDE-043, YY-102 and” for “YDE-001 to YDE-028, YY-102 and”, “and the 15 YDE-series were” for “and the 28 YDE-series were”, “the test substances (FIG. 7).” for “the test substances.”
After YDE-001 to YDE-028 were each administered to the eyes […], the changes in the corneal permeability were checked.
In order to measure the corneal permeability, Zolethyl 50™ (Virbac Lab., Carros, France), an animal anesthetic, was intraperitoneally injected at a dose of 25 mg/kg. Thereafter, saline containing a 1% (v/v) fluorescent solution (fluorescein sodium salt, Tokyo Kasei Kogyo Co., Tokyo, Japan) was applied to the eyes at a dose of 5 μl/eye. The eyes thus treated were closed and fixed with a tape. After 1 hour, the remaining fluorescent solution was removed using a cotton swab (FIG. 12). […]

[3] = test system: rats with dry eye syndrome (extraorbital lacrimal gland excision, ELGE); experiment: Amount of tear secretion (Schirmer test, cobalt chloride paper) in ELGE rats with dry eye syndrome; assay type: in vivo, rat; conditions: for Tear Volumes, Day 7 / Tear Volumes, Day 14: ELGE rats, 3 mg/ml, 5 μl/eye twice daily; for Tear Volumes, Day 7: day 7 of administration; for Tear Volumes, Day 14: day 14 of administration; for Change in amount of tear secretion as compared with the ELGE control group: 3% solution as printed, after administration for 14 days
Source text: as §1, §2, §3, §4
as §4, with “Further, for YDE-029 to YDE-043,” for “For YDE-001 to YDE-028,”, “YDE-029 to YDE-043, YY-102 and” for “YDE-001 to YDE-028, YY-102 and”, “and the 15 YDE-series were” for “and the 28 YDE-series were”, “the test substances (FIG. 7).” for “the test substances.”
After 6 days from the ELGE surgery, the changes in the amount of tear secretion were measured at day 7 and day 14 after the administration of YDE-001 to YDE-043. The amount of tear secretion was measured by the […] travel distance of tears absorbed by cobalt chloride paper in a size of 1×15 mm (Toyo Roshi Kaisha, Japan).
The cobalt chloride paper was placed in the lateral canthus of a rat for 60 seconds to absorb tears (FIG. 9). The length of the area absorbed from the corner of the cobalt chloride paper was measured with an electronic digital caliper (Mytutoyo, Tokyo, Japan) (FIG. 8).

[4] = Table 7, study of YDE-029 to YDE-043, 3 mg/ml
[5] = Table 5, study of YDE-029 to YDE-043
[6] = Table 6, study of YDE-001 to YDE-028, 3 mg/ml
[7] = Table 4, study of YDE-001 to YDE-028

Amount of related substances (after 12 weeks) [1] [%] | Structure (SMILES) | Permeability of fluorescent dye [2, 4] [%] | Tear Volumes, Day 7 [3, 5] [mm^3] | Tear Volumes, Day 14 [3, 5] [mm^3] | Change in amount of tear secretion as compared with the ELGE control group ([3]; study of YDE-029 to YDE-043) | Permeability of fluorescent dye [2, 6] [%] | Tear Volumes, Day 7 [3, 7] [mm^3] | Tear Volumes, Day 14 [3, 7] [mm^3] | Change in amount of tear secretion as compared with the ELGE control group ([3]; study of YDE-001 to YDE-028)
2.77 | CC(C)C[C@H](NC(=O)CNC(=O)[C@H](CC(C)C)NC(=O)[C@H](CCC(N)=O)NC(=O)CNC(=O)[C@@H]1C[C@@H](O)CN1)C(=O)N[C@@H](C)C(=O)NCC(=O)N1CCC[C@H]1C(=O)N[C@@H](Cc1ccc(O)cc1)C(=O)O [YDE-029] (H-[Hyp]GQLGLAGPY-OH) | 63.45 ± 11.57 | 5.33 ± 1.43 | 6.03 ± 1.71 | did not show any significant changes | – | – | – | –
3.57 | CC(C)C[C@H](NC(=O)CNC(=O)[C@H](Cc1ccccc1)NC(=O)[C@H](CCC(N)=O)NC(=O)CNC(=O)[C@@H]1C[C@@H](O)CN1)C(=O)N[C@@H](C)C(=O)NCC(=O)N1CCC[C@H]1C(=O)N[C@@H](CCCCN)C(=O)O [YDE-012] (H-[Hyp]GQFGLAGPK-OH) | – | – | – | – | 31.01 ± 11.38 | 3.68 ± 0.99 | 5.67 ± 1.86 | –
4.93 | CC(C)C[C@H](NC(=O)CNC(=O)[C@H](CC(N)=O)NC(=O)[C@H](CCC(N)=O)NC(=O)CNC(=O)[C@@H]1C[C@@H](O)CN1)C(=O)N[C@@H](C)C(=O)NCC(=O)N1CCC[C@H]1C(=O)N[C@@H](CCCCN)C(=O)O [YDE-002] (H-[Hyp]GQNGLAGPK-OH) | – | – | – | – | 38.26 ± 11.25 | 3.84 ± 1.16 | 5.01 ± 1.67 | –
1.25 | CC(C)C[C@H](NC(=O)CNC(=O)[C@H](CC(C)C)NC(=O)[C@H](CCC(N)=O)NC(=O)CNC(=O)[C@@H]1C[C@H](O)CN1)C(=O)N[C@@H](C)C(=O)NCC(=O)N1CCC[C@H]1C(=O)N[C@@H](CCCCN)C(=O)O [YDE-034] (H-[cisHyp]GQLGLAGPK-OH) | 32.17 ± 12.94 | 6.16 ± 1.01 | 6.43 ± 1.86 | did not show any significant changes | – | – | – | –
4.71 | CC(C)C[C@H](NC(=O)CNC(=O)[C@@H](NC(=O)[C@H](CCC(N)=O)NC(=O)CNC(=O)[C@@H]1C[C@@H](O)CN1)C(C)C)C(=O)N[C@@H](C)C(=O)NCC(=O)N1CCC[C@H]1C(=O)N[C@@H](CCCCN)C(=O)O [YDE-009] (H-[Hyp]GQVGLAGPK-OH) | – | – | – | – | 41.50 ± 7.86 | 3.76 ± 1.21 | 4.54 ± 1.11 | did not show any significant changes
8.77 | CC(C)C[C@H](NC(=O)CNC(=O)[C@H](CC(C)C)NC(=O)[C@H](CCC(N)=O)NC(=O)CNC(=O)[C@@H]1CCC(=O)N1)C(=O)N[C@@H](C)C(=O)NCC(=O)N1CCC[C@H]1C(=O)N[C@@H](CCCCN)C(=O)O [YDE-036] ([pGlu]GQLGLAGPK-OH) | 57.87 ± 22.91 | 4.95 ± 1.05 | 5.13 ± 1.03 | did not show any significant changes | – | – | – | –
20.59 | CC(C)C[C@H](NC(=O)[C@@H](NC(=O)[C@H](CC(=O)O)NC(=O)[C@H](CCC(N)=O)NC(=O)CNC(=O)[C@@H]1C[C@@H](O)CN1)C(C)O)C(=O)N[C@@H](C)C(=O)NCC(=O)N1CCC[C@H]1C(=O)N[C@@H](CCCCN)C(=O)O (stereo partly shown) [YDE-024] (H-[Hyp]GQD[Thr(3ξ)]LAGPK-OH) | – | – | – | – | 30.63 ± 10.41 | 3.85 ± 1.30 | 5.72 ± 1.36 | –
13.05 | CC(C)C[C@H](NC(=O)[C@@H](NC(=O)[C@H](CC(=O)O)NC(=O)[C@H](CCC(N)=O)NC(=O)CNC(=O)[C@@H]1C[C@@H](O)CN1)C(C)C)C(=O)N[C@@H](C)C(=O)NCC(=O)N1CCC[C@H]1C(=O)N[C@@H](CCCCN)C(=O)O [YDE-015] (H-[Hyp]GQDVLAGPK-OH) | – | – | – | – | 15.95 ± 6.48 | 4.03 ± 2.19 | 6.65 ± 2.13 | –
2.74 | CC(C)C[C@H](NC(=O)[C@@H]1CCCN1C(=O)CNC(=O)[C@H](C)NC(=O)[C@H](CC(C)C)NC(=O)CNC(=O)[C@H](CC(C)C)NC(=O)[C@H](CCC(N)=O)NC(=O)CNC(=O)[C@@H]1C[C@@H](O)CN1)C(=O)O [YDE-030] (H-[Hyp]GQLGLAGPL-OH) | 30.60 ± 13.61 | 5.69 ± 1.79 | 6.65 ± 2.17 | did not show any significant changes | – | – | – | –
5.6 | CC(C)C[C@H](NC(=O)CNC(=O)[C@H](CC(C)C)NC(=O)[C@H](CCC(N)=O)NC(=O)CNC(=O)[C@@H]1C[C@@H](O)CN1)C(=O)N[C@@H](C)C(=O)NCC(=O)N1CCC[C@H]1C(=O)N[C@@H](CCCCO)C(=O)O [YDE-033] (H-[Hyp]GQLGLAGP[X1]-OH) | 60.55 ± 21.22 | 4.99 ± 1.20 | 4.54 ± 1.16 | did not show any significant changes | – | – | – | –
6.86 | CC(C)C[C@H](NC(=O)CNC(=O)[C@H](CCC(N)=O)NC(=O)[C@H](CCC(N)=O)NC(=O)CNC(=O)[C@@H]1C[C@@H](O)CN1)C(=O)N[C@@H](C)C(=O)NCC(=O)N1CCC[C@H]1C(=O)N[C@@H](CCCCN)C(=O)O [YDE-003] (H-[Hyp]GQQGLAGPK-OH) | – | – | – | – | 40.45 ± 6.46 | 4.13 ± 1.76 | 4.88 ± 1.57 | –
– | O=c1ccn([C@@H]2O[C@H](COP(=O)(O)OP(=O)(O)OP(=O)(O)OP(=O)(O)OC[C@H]3O[C@@H](n4ccc(=O)[nH]c4=O)[C@H](O)[C@@H]3O)[C@@H](O)[C@H]2O)c(=O)[nH]1 [DS, diquafosol sodium, reference compound] | – | – | – | increased | – | – | – | increased
